According to patent US10577363B2, “Substituted piperidine compounds” (EPIZYME, INC., priority 2014, dated 2020):
Structures can show the parent of a compound that is named as a salt. Each block holds one compound with its values, some of them ahead of it.

Columns and labels:
[1] = biological target: T1, SMYD3 (Homo sapiens (Human), UniProt Q9H7B4); assay: SMYD3 cell assay (Trimethyl-MEKK2 In-Cell Western in 293T/17 cells); type: cell-based
Outline: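 In-Cell Western ratio of trimethyl-Lys260 MEKK2 to anti-flag signal; percent inhibition from DMSO and maximum-inhibition controls, IC50 by non-linear regression, triplicates.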

[2] = biological target: T1, SMYD3; assay: SMYD3 biochemical assay (SPA, 3H-SAM methylation of MEKK2 protein substrate)
Outline: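 Full-length native human SMYD3 (E. coli-expressed, tags removed) preincubated with compounds 30 min at room temperature, then reaction started with 3H-SAM and GST-tagged MEKK2 protein in 25 mM Tris-Cl pH 8.0, 1 mM TCEP, 0.005% BSG, 0.005% Tween 20. Quenched with unlabelled SAM (100 uM final); 3H-MEKK2 counted by SPA.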

[3] = 293T/17 cells, read-out: SMYD3 Cell IC50 (μM)*
[4] = read-out: SMYD3 Biochem IC50 (μM)*
[5] = average of n = 1 to n = 50, read-out: SMYD3 Cell IC50
[6] = average of n = 1 to n = 50, read-out: SMYD3 Biochem IC50
[7] = Table 1A, IC50 values are an average of n = 1 to n = 50, read-out: SMYD3 Cell IC50
[8] = Table 1A, IC50 values are an average of n = 1 to n = 50, read-out: SMYD3 Biochem IC50
[9] = Table 2A, read-out: SMYD3 Cell IC50
[10] = Table 2A, read-out: SMYD3 Biochem IC50
[11] = read-out: SMYD3 Cell IC50 (μM)*

T1 sequence (Q9H7B4 whole entry): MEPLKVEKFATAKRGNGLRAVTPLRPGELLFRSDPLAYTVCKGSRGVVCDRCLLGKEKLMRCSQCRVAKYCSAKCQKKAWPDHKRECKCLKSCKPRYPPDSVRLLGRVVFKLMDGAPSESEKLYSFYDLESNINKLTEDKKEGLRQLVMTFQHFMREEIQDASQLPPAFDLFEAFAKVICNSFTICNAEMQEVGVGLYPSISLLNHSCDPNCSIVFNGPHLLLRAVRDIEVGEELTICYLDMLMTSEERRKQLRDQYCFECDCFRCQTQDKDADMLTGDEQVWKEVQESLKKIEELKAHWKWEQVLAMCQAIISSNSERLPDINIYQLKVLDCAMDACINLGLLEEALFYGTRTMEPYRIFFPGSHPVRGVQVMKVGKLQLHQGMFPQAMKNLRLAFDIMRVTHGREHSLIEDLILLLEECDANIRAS

IC50 [1, 3]: 16.8 µM
IC50 [2, 4]: 1.18 µM
SMILES: N[C@H]1CC[C@H](C(=O)N2CC[C@@H](NC(=O)c3cc(C4CC4)on3)C[C@H]2Cc2ccccc2)CC1 [compound 309, N-((2R,4R)-1-((1r,4R)-4-aminocyclohexane-1-carbonyl)-2-benzylpiperidin-4-yl)-5-cyclopropylisoxazole-3-carboxamide]

SMILES: N#Cc1ccc(CNC2CCN(S(=O)(=O)N3[C@@H]4CC[C@H]3C[C@@H](NC(=O)c3cc(C5CC5)on3)C4)CC2)cc1 [compound 938, N-((1R,3r,5S)-8-((4-((4-cyanobenzyl)amino)piperidin-1-yl)sulfonyl)-8-azabicyclo[3.2.1]octan-3-yl)-5-cyclopropylisoxazole-3-carboxamide]
IC50 ([1]; read-out: SMYD3 Cell IC50*): 0.508 µM
IC50 ([2]; read-out: SMYD3 Biochem IC50*): 0.0441 µM

IC50 [1, 5]: 3.53 µM
IC50 [2, 6]: 0.303 µM
SMILES: C[C@@H]1C[C@H](NC(=O)c2cc(C3CC3)on2)CCN1S(=O)(=O)CCC(N)Cc1ccccc1 (stereo partly drawn) [compound 716, N-((2R,4R)-1-((3-amino-4-phenylbutyl)sulfonyl)-2-methylpiperidin-4-yl)-5-cyclopropylisoxazole-3-carboxamide]

SMILES: COCC1CCCN1CCS(=O)(=O)N1[C@@H]2CC[C@H]1C[C@@H](NC(=O)c1cc(C3CC3)on1)C2 (stereo partly drawn) [compound 762, 5-cyclopropyl-N-((1R,3r,5S)-8-((2-(2-(methoxymethyl)pyrrolidin-1-yl)ethyl)sulfonyl)-8-azabicyclo[3.2.1]octan-3-yl)isoxazole-3-carboxamide]
IC50 [1, 5]: 2.07 µM
IC50 [2, 6]: 0.77 µM

SMILES: CC1CC(NC(=O)c2cc(C3CC3)on2)CCN1C(=O)Cc1ncc[nH]1 (stereo not shown) [compound 427, N-(1-(2-(1H-imidazol-2-yl)acetyl)-2-methylpiperidin-4-yl)-5-cyclopropylisoxazole-3-carboxamide]
IC50 [1, 3]: > 10 µM
IC50 [2, 4]: > 10 µM

SMILES: O=C(N[C@H]1C[C@H]2CC[C@@H](C1)N2S(=O)(=O)N1CC2CCC(C1)N2)c1cc(C2CC2)on1 [compound 817, N-((1R,3r,5S)-8-((3,8-diazabicyclo[3.2.1]octan-3-yl)sulfonyl)-8-azabicyclo[3.2.1]octan-3-yl)-5-cyclopropylisoxazole-3-carboxamide]
IC50 ([1]; read-out: SMYD3 Cell IC50*): 0.0348 µM
IC50 ([2]; read-out: SMYD3 Biochem IC50*): 0.00311 µM

SMILES: C[C@H]1C[C@@H](NS(=O)(=O)N2[C@@H]3CC[C@H]2C[C@@H](NC(=O)c2cc(C4CC4)on2)C3)CCN1 [compound 886, 5-cyclopropyl-N-((1R,3S,5S)-8-(N-((2S,4S)-2-methylpiperidin-4-yl)sulfamoyl)-8-azabicyclo[3.2.1]octan-3-yl)isoxazole-3-carboxamide]
IC50 ([1]; read-out: SMYD3 Cell IC50*): 0.205 µM
IC50 ([2]; read-out: SMYD3 Biochem IC50*): 0.0121 µM

SMILES: O=C(N[C@@H]1C[C@H]2CC[C@@H](C1)N2S(=O)(=O)c1cc2oc(=O)[nH]c2cc1Cl)c1cc(C2CC2)on1 [compound 491, N-((1R,3s,5S)-8-((5-chloro-2-oxo-2,3-dihydrobenzo[d]oxazol-6-yl)sulfonyl)-8-azabicyclo[3.2.1]octan-3-yl)-5-cyclopropylisoxazole-3-carboxamide]
IC50 [1, 7]: > 10 µM
IC50 [2, 8]: > 10 µM

SMILES: CN(C)CCN(C)CCS(=O)(=O)N1[C@@H]2CC[C@H]1C[C@@H](NC(=O)c1cc(C3CC3)on1)C2 [compound 603, 5-cyclopropyl-N-((1R,3r,5S)-8-((2-((2-(dimethylamino)ethyl)(methyl)amino)ethyl)sulfonyl)-8-azabicyclo[3.2.1]octan-3-yl)isoxazole-3-carboxamide]
IC50 [1, 9]: 0.239 µM
IC50 [2, 10]: 0.0147 µM

IC50 [1, 3]: 8.28 µM
IC50 [2, 4]: 0.792 µM
SMILES: C[C@H](C(=O)N1CC[C@H](NC(=O)c2cc(C3CC3)on2)C[C@@H]1C)C1CCNCC1 [compound 360, 5-cyclopropyl-N-((2S,4S)-2-methyl-1-((S)-2-(piperidin-4-yl)propanoyl)piperidin-4-yl)isoxazole-3-carboxamide]

SMILES: C[C@H]1C[C@@H](NC(=O)c2cc(C3CC3)on2)CCN1S(=O)(=O)N1CC2CCC(C1)N2C [compound 565, 5-cyclopropyl-N-((2S,4S)-2-methyl-1-((8-methyl-3,8-diazabicyclo[3.2.1]octan-3-yl)sulfonyl)piperidin-4-yl)isoxazole-3-carboxamide]
IC50 [1, 9]: 0.0494 µM
IC50 [2, 10]: 0.006 µM

IC50 ([1]; read-out: SMYD3 Cell IC50*): 0.0442 µM
IC50 ([2]; read-out: SMYD3 Biochem IC50*): 0.00277 µM
SMILES: C[C@H]1C[C@@H](NC(=O)c2cc(C3CC3)on2)CCN1S(=O)(=O)CC[C@H]1CCN(C)C1 [compound 814, 5-cyclopropyl-N-((2S,4S)-2-methyl-1-((2-((R)-1-methylpyrrolidin-3-yl)ethyl)sulfonyl)piperidin-4-yl)isoxazole-3-carboxamide]

SMILES: O=C(N[C@H]1C[C@H]2CC[C@@H](C1)N2S(=O)(=O)N1CCNCC1)c1cc(C2CC2)on1 [compound 527, 5-cyclopropyl-N-((1R,3r,5S)-8-(piperazin-1-ylsulfonyl)-8-azabicyclo[3.2.1]octan-3-yl)isoxazole-3-carboxamide]
IC50 [1, 7]: 0.032 µM
IC50 [2, 8]: 0.003 µM

SMILES: O=C(N[C@H]1C[C@H]2CC[C@@H](C1)N2S(=O)(=O)NC1CCN(Cc2ccccc2)CC1)c1cc(C2CC2)on1 [compound 948, N-((1R,3r,5S)-8-(N-(1-benzylpiperidin-4-yl)sulfamoyl)-8-azabicyclo[3.2.1]octan-3-yl)-5-cyclopropylisoxazole-3-carboxamide]
IC50 ([1]; read-out: SMYD3 Cell IC50*): 0.411 µM
IC50 ([2]; read-out: SMYD3 Biochem IC50*): 0.0524 µM

SMILES: C[C@H]1C[C@@H](NC(=O)c2cc(C3CC3)on2)CCN1S(=O)(=O)CCc1ccccc1 [compound 235, 5-cyclopropyl-N-((2S,4S)-2-methyl-1-(phenethylsulfonyl)piperidin-4-yl)isoxazole-3-carboxamide]
IC50 [1, 11]: 3.3 µM
IC50 [2, 4]: 1.33 µM

SMILES: CC1CCCN1CCS(=O)(=O)N1[C@@H]2CC[C@H]1C[C@@H](NC(=O)c1cc(C3CC3)on1)C2 (stereo partly drawn) [compound 689, 5-cyclopropyl-N-((1R,3r,5S)-8-((2-(2-methylpyrrolidin-1-yl)ethyl)sulfonyl)-8-azabicyclo[3.2.1]octan-3-yl)isoxazole-3-carboxamide]
IC50 [1, 5]: 0.764 µM
IC50 [2, 6]: 0.131 µM

SMILES: C[C@H]1C[C@@H](NC(=O)c2cc(C3CC3)on2)CCN1C(=O)N1CCN(Cc2ccccc2)CC1 [compound 478, N-((2S,4S)-1-(4-benzylpiperazine-1-carbonyl)-2-methylpiperidin-4-yl)-5-cyclopropylisoxazole-3-carboxamide]
IC50 [1, 3]: > 10 µM
IC50 [2, 4]: > 10 µM

IC50 ([1]; read-out: SMYD3 Cell IC50*): 1.35 µM
IC50 ([2]; read-out: SMYD3 Biochem IC50*): 0.0806 µM
SMILES: C[C@H]1C[C@@H](NC(=O)c2cc(C3CC3)on2)CCN1S(=O)(=O)N1CCNC[C@H]1c1ccccc1 [compound 960, 5-cyclopropyl-N-((2S,4S)-2-methyl-1-(((R)-2-phenylpiperazin-1-yl)sulfonyl)piperidin-4-yl)isoxazole-3-carboxamide]

IC50 [1, 5]: 0.339 µM
IC50 [2, 6]: 0.0511 µM
SMILES: C[C@@H]1C[C@@H](NC(=O)c2cc(C3CC3)on2)CCN1S(=O)(=O)N1CCNCC1 [compound 652, 5-cyclopropyl-N-((2R,4S)-2-methyl-1-(piperazin-1-ylsulfonyl)piperidin-4-yl)isoxazole-3-carboxamide]

SMILES: O=C(N[C@H]1C[C@H]2CC[C@@H](C1)N2S(=O)(=O)CC1CCN(CCN2CCOCC2)CC1)c1cc(C2CC2)on1 [compound 619, 5-cyclopropyl-N-((1R,3r,5S)-8-(((1-(2-morpholinoethyl)piperidin-4-yl)methyl)sulfonyl)-8-azabicyclo[3.2.1]octan-3-yl)isoxazole-3-carboxamide]
IC50 [1, 9]: 0.592 µM
IC50 [2, 10]: 0.0232 µM

IC50 [1, 3]: 0.569 µM
IC50 [2, 4]: 0.0322 µM
SMILES: CC1CN(C(=O)[C@H]2CC[C@H](N)CC2)C(C)CC1NC(=O)c1cc(C2CC2)on1 (stereo partly shown) [compound 263, N-(1-((1r,4r)-4-aminocyclohexane-1-carbonyl)-2,5-dimethylpiperidin-4-yl)-5-cyclopropylisoxazole-3-carboxamide]

IC50 [1, 5]: 2.89 µM
IC50 [2, 6]: 0.633 µM
SMILES: C[C@H]1C[C@@H](NC(=O)c2cc(C3CC3)on2)CCN1S(=O)(=O)N1CCN[C@H](c2ccccc2)C1 [compound 751, 5-cyclopropyl-N-((2S,4S)-2-methyl-1-(((R)-3-phenylpiperazin-1-yl)sulfonyl)piperidin-4-yl)isoxazole-3-carboxamide]

SMILES: CC1CN(S(=O)(=O)N2[C@@H]3CC[C@H]2C[C@@H](NC(=O)c2cc(C4CC4)on2)C3)C(C)CN1 (stereo partly drawn) [compound 907, 5-cyclopropyl-N-((1R,3r,5S)-8-((2,5-dimethylpiperazin-1-yl)sulfonyl)-8-azabicyclo[3.2.1]octan-3-yl)isoxazole-3-carboxamide]
IC50 ([1]; read-out: SMYD3 Cell IC50*): 0.238 µM
IC50 ([2]; read-out: SMYD3 Biochem IC50*): 0.0177 µM

IC50 [1, 11]: 0.68 µM
IC50 [2, 4]: 0.00957 µM
SMILES: CC(C)c1cc(C[C@@H](CN)C(=O)N2CCC(NC(=O)c3cc(C4CC4)on3)CC2)ccc1O [Cpd. No. 121, N-[1-[(2S)-3-amino-2-[[4-hydroxy-3-(propan-2-yl)phenyl]methyl]propanoyl]piperidin-4-yl]-5-cyclopropyl-1,2-oxazole-3-carboxamide hydrochloride salt]

IC50 ([1]; read-out: SMYD3 Cell IC50*): 0.0276 µM
IC50 ([2]; read-out: SMYD3 Biochem IC50*): 0.00187 µM
SMILES: C[C@H]1C[C@@H](NC(=O)c2cc(C3CC3)on2)CCN1S(=O)(=O)CC[C@@H]1CCN(C)C1 [compound 795, 5-cyclopropyl-N-((2S,4S)-2-methyl-1-((2-((S)-1-methylpyrrolidin-3-yl)ethyl)sulfonyl)piperidin-4-yl)isoxazole-3-carboxamide]

IC50 [1, 9]: 0.0839 µM
IC50 [2, 10]: 0.0067 µM
SMILES: C[C@H]1C[C@@H](NC(=O)c2cc(C3CC3)on2)CCN1S(=O)(=O)N1CC2CC1CN2 (stereo partly drawn) [compound 570, N-((2S,4S)-1-((2,5-diazabicyclo[2.2.1]heptan-2-yl)sulfonyl)-2-methylpiperidin-4-yl)-5-cyclopropylisoxazole-3-carboxamide]
